Data set [1] deals with adipocyte precursors isolated from inguinal fat pads. Conditions: earlier study; cited from earlier work.
The target in another data set is T1, EGF receptors (Rattus norvegicus, UniProt G3V6K6).
T1 construct: adipocyte precursors have specific EGF receptors on their surface; endogenous in cells; host or cells: primary adipocyte precursors from inguinal fat pads of neonatal NBR rats
The data set can be described thus: 125I-EGF binding to EGF receptors on adipocyte precursors. As to conditions: control and treated rats, with or without acid wash. The text has this:
The properties of adipocytes from EGF-treated rats, namely, a decreased ability to differentiate and an increased sensitivity to EGF in vitro, could not be explained by occupancy of EGF receptors at the time of cell isolation.

The test system of data set [2] is organs including inguinal fat pads. Conditions: rat, in vivo. The text has this:
One question raised by the above results is whether the inhibition of adipose tissue development by EGF is due to a direct action of EGF on adipose tissue or by indirect action via another growth factor or hormone. Several observations point to direct action of EGF: EGF inhibits the differentiation of primary culture of adipocyte precursors freshly isolated from inguinal fat pads (10); adipocyte precursors have specific EGF receptors on their surface (10).

Another data set has as its system 1246 cells. Put plainly: Differentiation of 1246 cells (G3PDH enzymatic activity). Format: cell-based. The procedure: FIG. 11 is a graph showing the dose-related inhibition of adipocyte differentiation by prostaglandin F2α (PGF^2α). 1246 cells were incubated with the indicated dose of pGF^2α
FIG. 12 is a graph showing that indomethacin reverses the EGF-induced inhibition of adipocyte differentiation. 1246 cells were incubated in medium ("no"=control, 100% of activity) or in the presence of indicated concentrations of EGF, indomethacin ("Indo") or a mixture of EGF (E) at the indicated concentration and indomethacin (I) at 3 μM. As above, differentiation was assessed as G3PDH enzymatic activity.
Stimulation of PLA2 will result in the activation of the cyclooxygenase pathway, leading to generation of various prostaglandins, as is well-known in the art. One metabolite of this pathway, prostaglandin F2α (PGF2α), was tested for its ability to act as a mediator of the EGF effect and inhibit adipocyte differentiation.
If EGF inhibits adipocyte differentiation via the activation of PLA2 and cyclooxygenase, it would be expected that an inhibitor of cyclooxygenase would counteract the EGF effect.

The test system of the next data set is phospholipase A2 (PLA2). As to conditions: EGF 10 ng/ml. The procedure: Experiments were performed to examine whether stimulation of adipocyte precursors, either primary cultures or the 1246 cell line, activated the enzyme phospholipase A2 (PLA2) which results in the activation of cyclooxygenase and the generation of prostaglandins.
In a further data set the test system is obese yellow mice. Put plainly: Neonatal EGF treatment of obese yellow mice, body weight development over 43 days. Format: in vivo, mouse. Conditions: 1 μg/g body weight, day 1 to day 10 of life. The procedure: FIG. 7 is a graph showing the effect of EGF treatment on development of body weight in obese yellow mice over 43 days. Mice were injected beginning at 24 hours after birth with EGF (1 μg/g body weight) (filled diamonds, marked 1Y) or with vehicle (PBS) (+, marked OY) for 9 days. Weights are shown beginning at postnatal day 13

The test system of data set [3] is adipocyte precursors isolated from inguinal fat pads. Put plainly: Differentiation capacity in 4F medium of adipocyte precursors isolated from EGF-treated rats (G3PDH specific activity). Format: cell-based, rat. As to the method: (§1) Inguinal fat pads, well developed in 10 day-old animals, can be easily dissected. Inguinal fat pads were excised, weighed and pooled. They were digested with collagenase using the method of Bjorntorp et al. (23), and duplicate aliquots were kept for measuring triglyceride content as described below. Digestion conditions minimized breakage of adipocytes during the incubation period (23). After digestion, the cell suspension was filtered through a 253 μm nylon mesh filter. Adipocytes were easily recovered by two successive flotations of the cell suspension. The infranatant containing the adipocyte precursors was removed with a plastic pipet and further filtered through an 80 μm nylon mesh. The adipocytes remained in the tube after removal of the infranatant. They were gently resuspended in culture medium and counted in a hemocytometer. The filtrate containing the adipocyte precursors was centrifuged twice at 200×g for 5 minutes. Adipocyte precursor pellets were resuspended in 4F medium. The cells were subsequently counted in a hemocytometer and inoculated in 35 mm dishes in 4F medium as described previously (24). Such cultures were used to evaluate the cells' ability to differentiate and to measure their responsiveness to EGF.
(§2) The defined medium designated 4F consists of a 1:1 mixture of Dulbecco's modified Eagle's medium (DME) and Ham's F12 medium (DME-F12 medium) containing 15 mM HEPES, pH 7.4, 1.2 mg/ml sodium bicarbonate, 50 μg/ml gentamicin, and the following mixture of proteins: fibronectin (2.5 μg/ml), insulin (10 μg/ml), transferrin (10 μg/ml) and fibroblast growth factor (10 ng/ml). The medium was originally developed to support the differentiation of the adipogenic cell line, 1246 (25). When cultivated in this medium, optimal differentiation of adipocyte precursors was achieved within 8 days of culture (24).
It was shown previously (24) that adipocyte precursors freshly isolated from inguinal fat pads of 48 hr-old rats proliferated and differentiated in 4F medium (see above). […]

The test system of data set [4] is newborn NBR rats (inguinal fat pads). The data set can be described thus: Daily sc EGF injection of newborn NBR rats for 10 days: eyelid response, body, organ and inguinal fat pad measures. Format: in vivo, rat. The procedure: New Zealand Brown (NBR) rats (Trudeau Institute, Saranac Lake, N.Y.) were mated in the animal facilities of the W. Alton Jones Cell Science Center. One day after delivery, litter size was adjusted to 6-8 pups/female according to the size and age of the females. No more than 8 pups/female were used. Mothers were fed ad libitum a regular laboratory diet and were allowed free access to water. Animals were housed in rooms in which the air flow, temperature and lights were controlled (12 h of light between 6 AM to 6 PM).
Mouse "receptor grade" EGF (Biomedical Technologies, Inc.) was used in all experiments. […] Beginning at 24 hrs after birth, rats were injected subcutaneously (sc) daily for 10 days with EGF dissolved in physiological saline at doses varying between 0.1 and 1.0 μg/g of body weight. The pups were weighed prior to each injection. Control animals were similarly handled and weighed, and were injected sc with an equivalent volume of physiological saline.
as §1
For determination of triglyceride content, lipids were extracted from duplicate aliquots of the fat pad cell suspensions obtained as above pads, using the method of Bligh et al. (26). Triglycerides were separated by thin-layer chromatography on silica gel plates using hexane/[…]/formic acid (60:40:1) as a solvent system. Spots containing triglycerides were scraped, and the triglyceride content was determined by the method of Marsh et al. (27). This method consists of a quantitative charring of the triglycerides at 200° C. for 15 min in the presence of concentrated sulfuric acid. Absorbance of the samples at 350 nm was measured in a spectrophotometer using known amounts of triolein as standards.
Ten separate in vivo experiments were performed with neonatal NBR rats. Over the 10 day period, pups injected with saline alone or with EGF were weighed daily. The efficiency of EGF injected was assessed by monitoring the "eyelid response," by determining the postnatal day on which eyelid opening occurs, which is related to the EGF dose (28). Eyelid opening occurred at day 8 in rats injected with EGF at a concentration of 1 μg/g body weight, 24 hrs later in rats treated with 0.6 μg EGF/g body weight, and 48 hrs later in rats injected with 0.3 μg EGF/g body weight.

The subject of the next data set is newborn rats. The data set can be described thus: Neonatal EGF treatment of rats, body weight development over 28 days. Format: in vivo, rat. Conditions: 0.6 μg/g body weight, from 24 hours after birth, 9 days. As to the method: FIG. 6 is a graph showing the effect of EGF treatment of newborn rats on development of body weight over 28 days. Rats were injected beginning at 24 hours after birth with EGF (0.6 μg/g body weight) (filled squares) or with vehicle (PBS) (+) for 9 days.

For a further data set, the system named is adipocyte precursors. The data set can be described thus: Effect of EGF on proliferation of adipocyte precursors in 4F medium (cell count). Format: cell-based, rat. As to the method:
FIG. 5 is a graph showing the effect of EGF on proliferation of adipocyte precursors. Controls and EGF-treated animals as in FIG. 4. After 8 days of culture, cells were detached with trypsin and counted on a Coulter counter. Values represent means±standard errors.
For this purpose, adipocyte precursors isolated from inguinal fat pads of control or EGF-injected animals (1 μg/g body weight) were cultivated in 4F medium alone or in the presence of increasing concentrations of EGF. […] The ED50 for EGF on cells from EGF-treated animals was calculated to be 0.5 ng/ml, compared to an ED50 of 0.9 ng/ml for EGF acting on control cells.
Marked stimulation of proliferation (in cells from controls or EGF-treated rats) was observed only at EGF concentrations above 1 ng/ml.

Data set [5] has as its system adipocyte precursors isolated from inguinal fat pads. The data set can be described thus: Inhibition by EGF of differentiation of primary culture adipocyte precursors (G3PDH activity). Format: cell-based, rat. The procedure:
as §1, §2
Studies from the present inventor's laboratory (10) have shown that the differentiation in vitro of adipocyte precursors cultivated in 4F medium was inhibited in a dose-dependent manner by EGF added to the medium. […]

[6] abbreviates: EGF-treated compared to control animals.

Consider transforming growth factor.α [TGFα], for which the “differentiation of primary culture adipocyte precursors from inguinal fat pad of newborn rats” value in data set [1] is “potent inhibitor”.

Take “^125 I-EGF: radiolabeled EGF used in binding studies”: the “EGF bound to EGF receptors on adipocyte precursors” value with EGF receptors was “about 4 pg EGF bound per 10^5 cells”. The “binding to organs after sc injection” value in data set [2] is reported as “specifically bound to several organs including inguinal fat pads”.

As to `COc1ccc2c(c1)c(CC(=O)O)c(C)n2C(=O)c1ccc(Cl)cc1` [indomethacin], the “effect on EGF inhibition of adipocyte differentiation” value in the data set with 1246 cells (indomethacin 3 μM with EGF at 2 or 10 ng/ml) is given as “completely reversed”.

In the case of Epidermal growth factor [EGF], the PLA2 activity result in the data set on phospholipase A2 (PLA2) is “increase in PLA2 activity”. In the data set with obese yellow mice, the “body weight over at least 43 days” value was “prolonged and profound diminution in body weight”. Further, the “G3PDH specific activity corresponding to 100% activity (FIG. 4)” value in data set [3] (cells from EGF-treated rats) was 337±53 milliunits/mg protein. For the same molecule, in data set [3] (cells from animals treated with 1 μg/g, day 8 of culture), the “G3PDH specific activity, lower than control” value came to 60%. The same molecule yielded a G3PDH specific activity in data set [3] (cells from animals treated with EGF 1 μg/g, 5 separate experiments) of 337±53 mU/mg protein. For the same molecule, in data set [4] (0.1 μg EGF/g body weight sc daily), the “eyelid opening at termination, day 10” value is “eyelid opening had not yet occurred”. For the same molecule, the “eyelid opening, time later than at the 1 μg/g dose” value in data set [4] (0.3 μg EGF/g body weight sc daily) turned out to be 48 h. Further, the “eyelid opening, time later than at the 1 μg/g dose” value in [4] (0.6 μg EGF/g body weight sc daily) came to 24 h. Moreover, in data set [4] (1 μg EGF/g body weight), the “fat pad triglyceride content, lower than control” value is 80% and the “number of mature adipocytes in the fat pad, lower than in control animals” value turned out to be 4 fold. In data set [4] (1 μg EGF/g body weight, 10 days), the “body weight, less than in control animals” value is recorded as 40%. Also, the “inguinal fat pad weight, lower than in controls” value in data set [4] (1 μg of EGF/g body weight, 10 days) is reported as 50%. Further, in [4] (1 μg/g body weight), the “number of adipocyte precursors per fat pad, higher than in control animals” value came out at 1.8 fold. Moreover, the “postnatal day on which eyelid opening occurs” value in data set [4] (1 μg/g body weight sc daily) came out at 8 days. For the same molecule, in [4] (EGF treatment), the intestinal weight entry is “increased”, the kidney weight result was “some decrease” and the liver weight entry was “unchanged”. Further, in data set [4] (EGF-treated animals), the “total number of cells (precursors plus adipocytes) in fat pads, lower than controls” value is 40%. Also, in data set [4] (setting [6]), the hair growth entry is on record as “delay in hair growth” and the incisor eruption entry is “acceleration of incisor eruption”. The “lowest EGF dose at which a significant delay of adipose tissue development was observed” value in data set [4] (daily sc injection) is 0.3 μg/g body weight. Besides, the “body weight over a 28 day period” value in the data set with newborn rats is reported as “significant reduction in body weight”. In addition, the “effect on cell proliferation of the EGF concentration which inhibited differentiation by 50%” value in the data set on adipocyte precursors was “moderate or no effects”. Moreover, the “proliferation of adipocyte precursors” value with adipocyte precursors (EGF added to 4F medium, cells from control and EGF-treated rats, 8 days) is reported as “stimulated proliferation”. In addition, the “EGF concentration giving marked stimulation of proliferation” value in the data set on adipocyte precursors (cells from controls or EGF-treated rats) is listed as “above 1 ng/ml”. Moreover, the “differentiation of primary culture adipocyte precursors from inguinal fat pad of newborn rats” value in data set [1] is “potent inhibitor”. Also, the “differentiation (G3PDH activity)” value in data set [5] (EGF 10 ng/ml, primary cultures) was “inhibition of differentiation”. For the same molecule, the “ED50 for inhibition of differentiation (G3PDH enzyme activity)” value in [5] (cells from EGF-treated animals (1 μg/g body weight)) is 0.5 ng/mL. Moreover, the “ED50 for inhibition of differentiation (G3PDH enzyme activity)” value in data set [5] (control cells) was 0.9 ng/mL.

With prostaglandin F2α [PGF2α], the “differentiation of 1246 cells” value with 1246 cells (indicated doses (FIG. 11)) is recorded as “concentration-dependent inhibition”.

The record behind these values is patent US5723115A, “Inhibition of adipose tissue development and obesity” (W. Alton Jones Cell Science Center, Inc., priority 1993, dated 1998).
